Experimental data as given in ChEMBL document CHEMBL6109102, “Conjugation with the XJB peptide enhanced neuroprotective effect of honokiol via SIRT3 modulation” (Eur J Med Chem, 2025).
The source made the active and inactive calls. The rule behind the calls is not given here.

Tests used:
PC-12 [1] = assay: Cytotoxicity against rat PC12 cells assessed as inhibition of cell viability at 30 uM incubated for 24 hrs by MTT assay; assay type: functional, cell-based
PC-12 [2] = assay: Neuroprotective activity against H2O2-induced cell injury in rat PC12 cells assessed as cell viability at 2 uM incubated for 24 hrs by MTT assay; assay type: functional, cell-based
PC-12 [3] = assay: Cytoprotective activity against H2O2-induced cell injury in rat PC12 cells at 2.5 uM incubated with compound for 24 hrs followed by H2O2 addition and measured up to 96 hrs by Real-time cell analysis; assay type: functional, cell-based; details: time <= 120.0 hrs
PC-12 [4] = assay: Inhibition of apoptosis in H2O2-induced rat PC12 cells assessed as viable cells at 1.25 uM incubated with compound for 24 hrs followed by H2O2 addition and measured after 24 hrs by Annexin V-FITC/PI staining based flow cytometry analysis (reference value: 91.4%); assay type: functional; details: read-out: Activity
PC-12 [5] = assay: Inhibition of apoptosis in H2O2-induced rat PC12 cells assessed as early apoptotic cells at 1.25 uM incubated with compound for 24 hrs followed by H2O2 addition and measured after 24 hrs by Annexin V-FITC/PI staining based flow cytometry analysis (reference value: 1.09%); assay type: functional; design: scale not given: the % may be the effect or the level left
PC-12 [6] = assay: Inhibition of apoptosis in H2O2-induced rat PC12 cells assessed as late apoptotic cells at 1.25 uM incubated with compound for 24 hrs followed by H2O2 addition and measured after 24 hrs by Annexin V-FITC/PI staining based flow cytometry analysis (reference value: 2.64%); assay type: functional; design: scale not given: the % may be the effect or the level left
PC-12 [7] = assay: Inhibition of apoptosis in H2O2-induced rat PC12 cells assessed as necrotic cells at 1.25 uM incubated with compound for 24 hrs followed by H2O2 addition and measured after 24 hrs by Annexin V-FITC/PI staining based flow cytometry analysis (reference value: 4.05%); assay type: functional; design: scale not given: the % may be the effect or the level left
PC-12 [8] = assay: Inhibition of apoptosis in H2O2-induced rat PC12 cells assessed as viable cells at 2.5 uM incubated with compound for 24 hrs followed by H2O2 addition and measured after 24 hrs by Annexin V-FITC/PI staining based flow cytometry analysis (reference value: 91.4%); assay type: functional; details: read-out: Activity
PC-12 [9] = assay: Inhibition of apoptosis in H2O2-induced rat PC12 cells assessed as early apoptotic cells at 2.5 uM incubated with compound for 24 hrs followed by H2O2 addition and measured after 24 hrs by Annexin V-FITC/PI staining based flow cytometry analysis (reference value: 1.09%); assay type: functional; design: scale not given: the % may be the effect or the level left
PC-12 [10] = assay: Inhibition of apoptosis in H2O2-induced rat PC12 cells assessed as late apoptotic cells at 2.5 uM incubated with compound for 24 hrs followed by H2O2 addition and measured after 24 hrs by Annexin V-FITC/PI staining based flow cytometry analysis (reference value: 2.64%); assay type: functional; design: scale not given: the % may be the effect or the level left
PC-12 [11] = assay: Inhibition of apoptosis in H2O2-induced rat PC12 cells assessed as necrotic cells at 2.5 uM incubated with compound for 24 hrs followed by H2O2 addition and measured after 24 hrs by Annexin V-FITC/PI staining based flow cytometry analysis (reference value: 4.05%); assay type: functional; design: scale not given: the % may be the effect or the level left
PC-12 [12] = assay: Inhibition of apoptosis in H2O2-induced rat PC12 cells assessed as viable cells at 5 uM incubated with compound for 24 hrs followed by H2O2 addition and measured after 24 hrs by Annexin V-FITC/PI staining based flow cytometry analysis (reference value: 91.4%); assay type: functional; details: read-out: Activity
PC-12 [13] = assay: Inhibition of apoptosis in H2O2-induced rat PC12 cells assessed as early apoptotic cells at 5 uM incubated with compound for 24 hrs followed by H2O2 addition and measured after 24 hrs by Annexin V-FITC/PI staining based flow cytometry analysis (reference value: 1.09%); assay type: functional; design: scale not given: the % may be the effect or the level left
PC-12 [14] = assay: Inhibition of apoptosis in H2O2-induced rat PC12 cells assessed as late apoptotic cells at 5 uM incubated with compound for 24 hrs followed by H2O2 addition and measured after 24 hrs by Annexin V-FITC/PI staining based flow cytometry analysis (reference value: 2.64%); assay type: functional; design: scale not given: the % may be the effect or the level left
PC-12 [15] = assay: Inhibition of apoptosis in H2O2-induced rat PC12 cells assessed as necrotic cells at 5 uM incubated with compound for 24 hrs followed by H2O2 addition and measured after 24 hrs by Annexin V-FITC/PI staining based flow cytometry analysis (reference value: 4.05%); assay type: functional; design: scale not given: the % may be the effect or the level left
PC-12 [16] = assay: Anti-apoptotic activity in H2O2-induced rat PC12 cells assessed as increase in PARP protein expression at 1.25 to 5 uM by Western blot analysis; assay type: functional, cell-based; details: dose 1.25-5 µM
Danio rerio = assay: Anti-alzheimer activity in scopolamine induced zebrafish alzheimer disease model assessed as increase in total swimming distance at 1.25 to 5 uM administered for 6 days post fertilization; assay type: functional, organism-based; details: dose 1.25-5 µM, time 6.0 day
PC-12 [17] = assay: Neuroprotective activity against H2O2-induced cell injury in rat PC12 cells assessed as cell viability incubated for 24 hrs by MTT assay; assay type: functional, cell-based; details: dose 0.37-30 µM
SH-SY5Y = assay: Cytotoxicity against human SH-SY5Y cells assessed as inhibition of cell viability at 100 uM incubated for 24 hrs by MTT assay; assay type: functional, cell-based

Structure (SMILES)	Activity (PC-12 [1])	Activity (PC-12 [2])	Activity (PC-12 [3])	viability at 1.25 µM (PC-12 [4])	Activity (PC-12 [5])	Activity (PC-12 [6])	Activity (PC-12 [7])	viability at 2.5 µM (PC-12 [8])	Activity (PC-12 [9])	Activity (PC-12 [10])	Activity (PC-12 [11])	viability at 5 µM (PC-12 [12])	Activity (PC-12 [13])	Activity (PC-12 [14])	Activity (PC-12 [15])	Activity (PC-12 [16])	Activity (Danio rerio)	Activity (PC-12 [17])	Activity (SH-SY5Y)
C=CCc1ccc(OCCCNC(=O)[C@H](CCCNC(=O)OCc2ccccc2)NC(=O)[C@@H](NC(=O)[C@@H]2CCCN2C(=O)[C@@H](Cc2ccccc2)NC(=O)[C@H](CC(C)C)NC(=O)OC(C)(C)C)C(C)C)c(-c2ccc(OC)c(CC=C)c2)c1	inactive																		
C=CCc1ccc(OCCCNC(=O)[C@H](CCCNC(=O)OCc2ccccc2)NC(=O)[C@@H](NC(=O)[C@@H]2CCCN2C(=O)[C@@H](Cc2ccccc2)NC(=O)[C@H](CC(C)C)NC(=O)OC(C)(C)C)C(C)C)c(-c2ccc(O)c(CC=C)c2)c1	inactive	Active	Active	76.6%	17.2%	4.86%	1.4%	83.9%	11.6%	2.87%	1.66%	86.8%	8.97%	2.69%	1.58%	Active	Active	Dose-dependent-effect	
CC(C)C[C@H](NC(=O)OC(C)(C)C)C(=O)N[C@H](Cc1ccccc1)C(=O)N1CCC[C@H]1C(=O)N[C@H](C(=O)N[C@@H](CCCNC(=O)OCc1ccccc1)C(=O)O)C(C)C	Active																		inactive
